Measured values taken from ChEMBL document CHEMBL4414662, “Cytotoxic Kendomycins Containing the Carbacylic Ansa Scaffold from the Marine-Derived Verrucosispora sp. SCSIO 07399” (J Nat Prod, 2019).
Converted amounts (≈) assume the structure as drawn.

How the values were obtained:
RKO = assay: Antiproliferative activity against human RKO cells assessed as reduction in cell viability by MTT assay; format: functional, cell-based
[1] = Cytotoxicity against HUVEC12 assessed as reduction in cell viability by MTT assay; settings: Homo sapiens
HepG2 = assay: Antiproliferative activity against human HepG2 cells assessed as reduction in cell viability by MTT assay; format: functional, cell-based
HeLa = assay: Antiproliferative activity against human HeLa cells assessed as reduction in cell viability by MTT assay; format: functional, cell-based
MGC-803 = assay: Antiproliferative activity against human MGC803 cells assessed as reduction in cell viability by MTT assay; format: functional, cell-based
MCF7 = assay: Antiproliferative activity against human MCF7 cells assessed as reduction in cell viability by MTT assay; format: functional, cell-based
L02 = assay: Cytotoxicity against human L02 cells assessed as reduction in cell viability by MTT assay; format: cell-based
Staphylococcus aureus [2] = assay: Antibacterial activity against Staphylococcus aureus ATCC […] by CLSI based two-fold serial dilution method; format: functional; settings: ATCC 29213
Bacillus thuringiensis = assay: Antibacterial activity against Bacillus thuringiensis BT01 by CLSI based two-fold serial dilution method; format: functional
Staphylococcus aureus [3] = assay: Antibacterial activity against methicillin-resistant Staphylococcus aureus shhs-A1 by CLSI based two-fold serial dilution method; format: functional
Enterococcus faecalis = assay: Antimicrobial activity against Enterococcus faecalis ATCC 29212 by CLSI based two-fold serial dilution method; format: functional
Staphylococcus aureus [4] = assay: Antibacterial activity against Staphylococcus aureus 745524 by CLSI based two-fold serial dilution method; format: functional
Bacillus subtilis = assay: Antibacterial activity against Bacillus subtilis BS01 by CLSI based two-fold serial dilution method; format: functional
A549 = assay: Antiproliferative activity against human A549 cells assessed as reduction in cell viability by MTT assay; format: functional, cell-based

COc1cccc2c1C(=O)c1c(O)c3c(c(O)c1C2=O)C[C@@](O)(C(=O)CO)C[C@@H]3O[C@H]1C[C@H](N)[C@H](O)[C@H](C)O1 [DOXORUBICIN]
IC50 (RKO): 1.5 µM
IC50 [1]: 7.2 µM
IC50 (HepG2): 0.7 µM
IC50 (HeLa): 0.8 µM
IC50 (MGC-803): 3.6 µM
IC50 (MCF7): 0.8 µM
IC50 (L02): 8.6 µM

NC[C@H]1O[C@H](O[C@H]2[C@H](O)[C@@H](O[C@H]3O[C@H](CO)[C@@H](O)[C@H](N)[C@H]3O)[C@H](N)C[C@@H]2N)[C@H](O)[C@@H](O)[C@@H]1O [KANAMYCIN]
MIC (Staphylococcus aureus [2]): 16 µg/mL (≈ 33 µM)
MIC (Bacillus thuringiensis): 8 µg/mL (≈ 16.5 µM)
MIC (Staphylococcus aureus [3]): 64 µg/mL (≈ 132 µM)
MIC (Enterococcus faecalis): 32 µg/mL (≈ 66 µM)
MIC (Staphylococcus aureus [4]): 64 µg/mL (≈ 132 µM)
MIC (Bacillus subtilis): 8 µg/mL (≈ 16.5 µM)

CC1(C)S[C@@H]2[C@H](NC(=O)[C@H](N)c3ccccc3)C(=O)N2[C@H]1C(=O)O [AMPICILLIN]
MIC (Staphylococcus aureus [2]): 2 µg/mL (≈ 5.72 µM)
MIC (Bacillus thuringiensis): 32 µg/mL (≈ 91.6 µM)
MIC (Staphylococcus aureus [3]): 1 µg/mL (≈ 2.86 µM)
MIC (Enterococcus faecalis): 2 µg/mL (≈ 5.72 µM)
MIC (Bacillus subtilis): 0.25 µg/mL (≈ 0.715 µM)

CN[C@H](CC(C)C)C(=O)N[C@H]1C(=O)N[C@@H](CC(N)=O)C(=O)N[C@H]2C(=O)N[C@H]3C(=O)N[C@H](C(=O)N[C@H](C(=O)O)c4cc(O)cc(O)c4-c4cc3ccc4O)[C@H](O)c3ccc(c(Cl)c3)Oc3cc2cc(c3O[C@@H]2O[C@H](CO)[C@@H](O)[C@H](O)[C@H]2O[C@H]2C[C@](C)(N)[C@H](O)[C@H](C)O2)Oc2ccc(cc2Cl)[C@H]1O [VANCOMYCIN]
MIC (Bacillus thuringiensis): 2 µg/mL (≈ 1.38 µM)
MIC (Bacillus subtilis): 1 µg/mL (≈ 0.69 µM)

C/C1=C\[C@@H](C)CC[C@H]2O[C@@H](C3=C(O)C(=O)C=C4O[C@](O)(C=C43)[C@@H](C)C[C@H](C)C1)[C@H](C)[C@@H](O)[C@H]2C
IC50 (A549): 8 µM
IC50 (RKO): 6.1 µM
MIC (Staphylococcus aureus [2]): 0.5 µg/mL (≈ 1.06 µM)
MIC (Bacillus thuringiensis): 1 µg/mL (≈ 2.12 µM)
IC50 [1]: 6 µM
IC50 (HepG2): 22 µM
MIC (Staphylococcus aureus [3]): 2 µg/mL (≈ 4.23 µM)
IC50 (HeLa): 4.9 µM
MIC (Enterococcus faecalis): 2 µg/mL (≈ 4.23 µM)
IC50 (MGC-803): 3.3 µM
MIC (Staphylococcus aureus [4]): 1 µg/mL (≈ 2.12 µM)
IC50 (MCF7): 5.1 µM
MIC (Bacillus subtilis): 2 µg/mL (≈ 4.23 µM)
IC50 (L02): 7.4 µM

CSC1=C2C3=CC(=O)C(O)=C2[C@@H]2O[C@H](CC[C@H](C)/C=C(\C)C[C@@H](C)C[C@H](C)[C@]1(O)O3)[C@H](C)[C@H](O)[C@H]2C
IC50 (A549): 6.8 µM
IC50 (RKO): 3.8 µM
MIC (Staphylococcus aureus [2]): 0.5 µg/mL (≈ 0.964 µM)
MIC (Bacillus thuringiensis): 0.5 µg/mL (≈ 0.964 µM)
IC50 [1]: 6 µM
IC50 (HepG2): 6.7 µM
MIC (Staphylococcus aureus [3]): 1 µg/mL (≈ 1.93 µM)
IC50 (HeLa): 5.4 µM
MIC (Enterococcus faecalis): 0.5 µg/mL (≈ 0.964 µM)
IC50 (MGC-803): 8.9 µM
MIC (Staphylococcus aureus [4]): 1 µg/mL (≈ 1.93 µM)
IC50 (MCF7): 2.3 µM
MIC (Bacillus subtilis): 2 µg/mL (≈ 3.86 µM)
IC50 (L02): 2.2 µM

CC(=O)N[C@@H](CSC1=C2C3=CC(=O)C(O)=C2[C@@H]2O[C@H](CC[C@H](C)/C=C(\C)C[C@@H](C)C[C@H](C)[C@]1(O)O3)[C@H](C)[C@H](O)[C@H]2C)C(=O)O
IC50 (A549): 26 µM
IC50 (RKO): 34 µM
MIC (Staphylococcus aureus [2]): 1 µg/mL (≈ 1.58 µM)
MIC (Bacillus thuringiensis): 2 µg/mL (≈ 3.16 µM)
IC50 [1]: > 50 µM
IC50 (HepG2): 44 µM
MIC (Staphylococcus aureus [3]): 4 µg/mL (≈ 6.31 µM)
IC50 (HeLa): 7.1 µM
MIC (Enterococcus faecalis): 4 µg/mL (≈ 6.31 µM)
IC50 (MGC-803): 7.1 µM
MIC (Staphylococcus aureus [4]): 2 µg/mL (≈ 3.16 µM)
IC50 (MCF7): 13 µM
MIC (Bacillus subtilis): 8 µg/mL (≈ 12.6 µM)
IC50 (L02): 6.2 µM
